From patent US20240277829A1, “HIV-1 VACCINATION AND SAMT-247 MICROBICIDE TO PREVENT HIV-1 INFECTION” (priority 2021, published 2024)

Tested on: NKG2A^+ cells
Assay: NKG2A^+ cells, blood and mucosa, PMA (Table 1 summary)
Format: cell-based
Details: * Zinc dependence
Method: Intracellular cytokines of Human blood NK cells using SAMT-247 and PMA stimulation with or without zinc chelator. The levels of NKG2A^+ NK cells were measured in blood of healthy humans. Human PBMCs were thawed and cultured in R10 in the presence or absence of SAMT-247 and/or PMA for 12 hours. Cells were incubated with or without Zinc chelator TPEN (cat. #P4413-100 MG, 5 μM) for 12 h. Subsequently, PBMCs were surface stained with the following: BUV737 anti-CD3 (SP34-2; cat. #741872, 5 μl), Alexa700 anti-CD20 (2H7; cat. #560631, 5 μl), BV786 anti-CD45 (HI30; cat. #563716, 5 μl) from BD Biosciences; APC-H7 anti-CD11b (ICRF44; cat. #47-0118-42, 5 μl) from eBioscience and PE-Cy7 anti-NKG2A (Z199; cat. #B10246, 5 μl) from Beckman coulter for 30 minutes at room temperature. This was followed by permeabilization with FOX3-transcription buffer set (cat. #00-5523-00) from eBioscience according to the manufacture's recommendation and subsequently intracellular staining with the following: BV750 anti-TNF-α (MAB11; cat. #566359, 5 μl), BUV396 anti-IFN-γ (B27; cat. #563563, 5 μl), BV510 anti-GranB (GB11; cat. #563388, 5 μl) from BD Biosciences; and FITC anti-Perforin (pf-344; cat. #3465-7, 5 μl) from MABTECH for 30 minutes at room temperature. Flow cytometry acquisitions were performed on a FACSymphony A5 and examined using FACSDIVA™ software (BD Biosciences).
Frequencies and cytokine levels of macaque rectal mucosal NK cells and T cells following SAMT-247 and PMA stimulation. NK/ILC and T cell frequencies and cytokine levels were measured in macaque rectal mucosa. Freshly collected rectal biopsies were processed to single cells and cultured in R10 in the presence/or absence of SAMT-247 and/or PMA for 12 hours. […]

CC(=O)Sc1ccccc1C(=O)NCCC(N)=O [SAMT-247]
Cytokine (IFN-γ): <IFN-γ * | Cytokine (TNF-α): <TNF-α * | Cytokine (granzyme and perforin): >Granzyme/Perforin
